Data taken from ChEMBL document CHEMBL1201862, “PubChem BioAssay data set” (2004).
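Protocol summary: plate cells (96-well), add compound at 5 concentrations, incubate 48 h, interpolate endpoints linearly. Here, GI50 denotes the concentration required for 50% inhibition of growth.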 The source made the active and inactive calls. Cut-off read from the data, not from the text of the source: active = GI50 up to about 1.1 µM and inactive = higher.

How the values were obtained:
Experiment in all cases: inhibition of tumour cell growth, NCI panel, 48 h
[1] = system: NCI-H226
[2] = system: NCI-H23
[3] = system: SK-MEL-2
[4] = system: HT-29
[5] = system: IGROV-1
[6] = system: SK-MEL-28
[7] = system: HOP-92
[8] = system: OVCAR-5
[9] = system: NCI/ADR-RES
[10] = system: M14
[11] = system: LOX IMVI
[12] = system: SF-539
[13] = system: T47D
[14] = system: SNB-75
[15] = system: HCT-116
[16] = system: RPMI-8226
[17] = system: HCT-15
[18] = system: NCI-H522

SMILES | GI50 [1] | GI50 [2] | GI50 [3] | GI50 [4] | GI50 [5] | GI50 [6] | GI50 [7] | GI50 [8] | GI50 [9] | GI50 [10] | GI50 [11] | GI50 [12] | GI50 [13] | GI50 [14] | GI50 [15] | GI50 [16] | GI50 [17] [µM] | GI50 [18]
N#CC12COC3(CCCCC3C1(C#N)C#N)OC2=N (centres undefined) | 22.9 µM (inactive) | 16.7 µM (inactive) | 12.7 µM (inactive) | 11.3 µM (inactive) | 14.6 µM (inactive) | 14.6 µM (inactive) | 5.06 µM (inactive) | 16.6 µM (inactive) | 28.2 µM (inactive) | 10.6 µM (inactive) | 12.9 µM (inactive) | 13.9 µM (inactive) | 11 µM (inactive) | 14 µM (inactive) | 12.6 µM (inactive) | – | – | –
O=C1c2ccccc2/N=C(/c2cc3c(cc2Cl)Sc2nccn2S3(=O)=O)OS(=O)(=O)N1c1ccccc1 | 39.4 µM (inactive) | 22.4 µM (inactive) | – | 23.3 µM (inactive) | – | – | 80.5 µM (inactive) | 19.4 µM (inactive) | – | 16.9 µM (inactive) | 8.09 µM (inactive) | 36.7 µM (inactive) | > 100 µM (inactive) | 7.4 µM (inactive) | 15.5 µM (inactive) | 18.6 µM (inactive) | 20.2 | 5.31 µM (inactive)
CN(CC(=O)O)c1ncc2c(n1)C=CCC2 | > 100 µM (inactive) | > 100 µM (inactive) | > 100 µM (inactive) | > 100 µM (inactive) | > 100 µM (inactive) | > 100 µM (inactive) | > 100 µM (inactive) | > 100 µM (inactive) | > 100 µM (inactive) | > 100 µM (inactive) | > 100 µM (inactive) | > 100 µM (inactive) | – | > 100 µM (inactive) | > 100 µM (inactive) | > 100 µM (inactive) | > 100 | > 100 µM (inactive)
COc1ccc(C(=O)Nc2ccc(O)c(=O)cc2)cc1 | > 100 µM (inactive) | 89.7 µM (inactive) | 50.1 µM (inactive) | 20.8 µM (inactive) | 37.9 µM (inactive) | 22.5 µM (inactive) | – | > 100 µM (inactive) | 42.3 µM (inactive) | 78 µM (inactive) | 38.7 µM (inactive) | 33.2 µM (inactive) | < 0.01 µM (active) | – | 33.1 µM (inactive) | 26.9 µM (inactive) | 26.9 | 25.8 µM (inactive)
CCOc1c2ccsc2c(OCC)c2ccsc12 | – | 4.34 µM (inactive) | > 30.1 µM (inactive) | 3.48 µM (inactive) | 5.06 µM (inactive) | 9.38 µM (inactive) | 2.57 µM (inactive) | 11.8 µM (inactive) | 7.05 µM (inactive) | 4.69 µM (inactive) | 2.61 µM (inactive) | 2.41 µM (inactive) | 3.94 µM (inactive) | 3.31 µM (inactive) | 4.06 µM (inactive) | 4.06 µM (inactive) | 4.06 | 3.27 µM (inactive)
C=C(C)CC1=C(OCC)C(OC)(OCC)C1=O (centres undefined) | > 100 µM (inactive) | > 100 µM (inactive) | > 100 µM (inactive) | > 100 µM (inactive) | > 100 µM (inactive) | > 100 µM (inactive) | > 100 µM (inactive) | > 100 µM (inactive) | > 100 µM (inactive) | > 100 µM (inactive) | > 100 µM (inactive) | > 100 µM (inactive) | > 100 µM (inactive) | > 100 µM (inactive) | > 100 µM (inactive) | – | > 100 | 47.8 µM (inactive)
Cc1ccc(S(=O)(=O)N/N=C2\CC3CC4CCC2C4C3)cc1 (centres undefined) | > 100 µM (inactive) | > 100 µM (inactive) | – | > 100 µM (inactive) | > 100 µM (inactive) | > 100 µM (inactive) | > 100 µM (inactive) | > 100 µM (inactive) | – | > 100 µM (inactive) | > 100 µM (inactive) | > 100 µM (inactive) | > 100 µM (inactive) | > 100 µM (inactive) | > 100 µM (inactive) | > 100 µM (inactive) | > 100 | > 100 µM (inactive)
CC(=O)/C(=C/NC(=S)c1ccncc1)C(=O)Nc1ccccc1C | > 100 µM (inactive) | > 100 µM (inactive) | > 100 µM (inactive) | > 100 µM (inactive) | > 100 µM (inactive) | > 100 µM (inactive) | > 100 µM (inactive) | > 100 µM (inactive) | > 100 µM (inactive) | > 100 µM (inactive) | > 100 µM (inactive) | > 100 µM (inactive) | > 100 µM (inactive) | > 100 µM (inactive) | > 100 µM (inactive) | – | > 100 | –
CC(C)(O)C1CC(=O)C(C)(C2C(O)CC3(C)C4CC=C5C(CCC(O)C5(C)C)C4(C)C(=O)CC23C)O1 (centres undefined) | > 100 µM (inactive) | > 100 µM (inactive) | > 100 µM (inactive) | > 100 µM (inactive) | > 100 µM (inactive) | > 100 µM (inactive) | 91.8 µM (inactive) | > 100 µM (inactive) | – | > 100 µM (inactive) | > 100 µM (inactive) | > 100 µM (inactive) | > 100 µM (inactive) | 42.2 µM (inactive) | > 100 µM (inactive) | > 100 µM (inactive) | > 100 | > 100 µM (inactive)
N=C(N)NC1C(O)C(O)C(O)C(NC(=N)N)C1O (centres undefined) | – | > 100 µM (inactive) | > 100 µM (inactive) | > 100 µM (inactive) | > 100 µM (inactive) | > 100 µM (inactive) | > 100 µM (inactive) | > 100 µM (inactive) | > 100 µM (inactive) | > 100 µM (inactive) | > 100 µM (inactive) | > 100 µM (inactive) | > 100 µM (inactive) | > 100 µM (inactive) | > 100 µM (inactive) | > 100 µM (inactive) | > 100 | > 100 µM (inactive)
Cn1cnc(N)c(N=O)c1=O | > 10 µM (inactive) | > 10 µM (inactive) | > 10 µM (inactive) | > 10 µM (inactive) | > 10 µM (inactive) | > 10 µM (inactive) | – | > 10 µM (inactive) | > 10 µM (inactive) | > 10 µM (inactive) | > 10 µM (inactive) | > 10 µM (inactive) | > 10 µM (inactive) | > 10 µM (inactive) | > 10 µM (inactive) | > 10 µM (inactive) | > 10 | > 10 µM (inactive)
c1cc2c3c(c1)[C@@H]1O[C@@H]1c1cccc(c1-3)[C@@H]1O[C@H]21 | > 100 µM (inactive) | 16.4 µM (inactive) | 17.4 µM (inactive) | 17.7 µM (inactive) | – | 15.7 µM (inactive) | 20.8 µM (inactive) | 16.5 µM (inactive) | 22.4 µM (inactive) | 15 µM (inactive) | 3.08 µM (inactive) | – | 20.5 µM (inactive) | 20.9 µM (inactive) | 15 µM (inactive) | – | 17.5 | 14.8 µM (inactive)
O=c1c2c3c(sc2nc2n1N=C(c1ccc(Br)cc1)CS2)CCCC3 | > 100 µM (inactive) | > 100 µM (inactive) | – | > 100 µM (inactive) | > 100 µM (inactive) | > 100 µM (inactive) | > 100 µM (inactive) | > 100 µM (inactive) | > 100 µM (inactive) | > 100 µM (inactive) | > 100 µM (inactive) | > 100 µM (inactive) | > 100 µM (inactive) | > 100 µM (inactive) | > 100 µM (inactive) | – | > 100 | > 100 µM (inactive)
C=C(C)CC1=C(C(=S)NCCO[Si](C)(C)C(C)(C)C)C(OCC)(OCC)C1=O | > 10 µM (inactive) | 16.9 µM (inactive) | 17 µM (inactive) | 9.59 µM (inactive) | 15.9 µM (inactive) | 15.5 µM (inactive) | 29.8 µM (inactive) | 14 µM (inactive) | 36.1 µM (inactive) | 18.3 µM (inactive) | 15.8 µM (inactive) | 19.9 µM (inactive) | 11.4 µM (inactive) | 14.7 µM (inactive) | 18.2 µM (inactive) | – | 8.93 | 13.7 µM (inactive)
CSc1ncc2c(n1)-c1ccccc1OC2NC(C)(C)C (centres undefined) | 31.4 µM (inactive) | > 100 µM (inactive) | – | 77.6 µM (inactive) | – | > 100 µM (inactive) | 31.8 µM (inactive) | 50.7 µM (inactive) | – | > 100 µM (inactive) | > 100 µM (inactive) | > 100 µM (inactive) | 55 µM (inactive) | 27.2 µM (inactive) | > 100 µM (inactive) | 57.7 µM (inactive) | > 100 | 27.8 µM (inactive)
CC(=O)OCC1OC(Oc2cc(C)c(O)cc2C/C=C(\C)CC/C=C(\C)CC(=O)CC(C)C)C(O)C(OC(C)=O)C1OC(C)=O (centres undefined) | – | 6.95 µM (inactive) | 10.2 µM (inactive) | 6 µM (inactive) | 29.4 µM (inactive) | 27.4 µM (inactive) | 45.8 µM (inactive) | 1.83 µM (inactive) | 11.4 µM (inactive) | 5.22 µM (inactive) | 13 µM (inactive) | – | 9.42 µM (inactive) | > 50 µM (inactive) | 18.2 µM (inactive) | 9.16 µM (inactive) | 14.3 | 13.6 µM (inactive)
CC1(C)SC2C(NC(=O)C(C(=O)O)c3ccccc3)C(=O)N2C1C(=O)O (centres undefined) | > 100 µM (inactive) | > 100 µM (inactive) | > 100 µM (inactive) | > 100 µM (inactive) | > 100 µM (inactive) | > 100 µM (inactive) | – | > 100 µM (inactive) | > 100 µM (inactive) | > 100 µM (inactive) | > 100 µM (inactive) | > 100 µM (inactive) | > 100 µM (inactive) | 92 µM (inactive) | > 100 µM (inactive) | > 100 µM (inactive) | > 100 | –
